Reference: EP4702986A1, “POLYPEPTIDE AND USE THEREOF” (Biocells (Beijing) Biotech Co., Ltd., priority 2023, dated 2024)
Numbered stars: 1 amine (or outer) side, 2 acyl side, 3 side chain; on linkers, the order of the positions; unused ones are H or OH. Bridge positions count the residues as written; N and C are the ends. Side chains are listed from the residue outwards. Peptide text beside a SMILES is read from it. * marks the point of attachment. γGlu = O=C(O)[C@H](CCC(=O)[*:2])N[*:1]; Fumaroyl = O=C(O)/C=C/C(=O)*; Suc = O=C(CCC(=O)[*:2])[*:1]; Lauroyl = CCCCCCCCCCCC(=O)*; AEEA = NCCOCCOCC(=O)O

How the values were obtained:
human ETA receptor = biological target: T1, human ETA receptor (Homo sapiens, UniProt P25101); experiment: Selectivity of polypeptides on human ETA receptor (IP-One Gq kit, % of positive control ET1); type: cell-based; settings: read-out: hETAR agonist activity, percentage of activity relative to ET1
T1 construct: expressed in transfected cells; host or cells: 293T-17 cells, transient transfection
T1 sequence (P25101 21-427): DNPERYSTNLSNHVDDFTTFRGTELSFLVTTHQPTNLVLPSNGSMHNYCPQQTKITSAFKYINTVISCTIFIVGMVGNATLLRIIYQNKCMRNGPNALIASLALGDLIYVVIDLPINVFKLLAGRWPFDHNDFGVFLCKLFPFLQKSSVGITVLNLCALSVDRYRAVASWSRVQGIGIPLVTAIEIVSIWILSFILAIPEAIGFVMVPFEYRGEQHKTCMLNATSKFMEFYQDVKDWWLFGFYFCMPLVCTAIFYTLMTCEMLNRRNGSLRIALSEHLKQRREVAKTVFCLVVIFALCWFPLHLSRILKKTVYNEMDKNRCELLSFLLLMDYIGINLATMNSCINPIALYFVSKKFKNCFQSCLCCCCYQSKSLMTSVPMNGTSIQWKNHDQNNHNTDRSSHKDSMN
Outline: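 293T-17 cells transiently transfected with human ETA receptor (48 h), 30,000 cells/well exposed to polypeptides for 1 h at 37°C; IP1 accumulation by HTRF (665/620 nm ratio). Activity given as % of ET1 at the same concentration after PBS-control subtraction.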

rat model of pMACO [1] = experiment: Grip strength test in rat model of pMACO; type: in vivo, SD rats; settings: pMACO rats; 3 administrations (2, 4, 6 h after modeling); IRL1620 5µg/Kg, BX34 7µg/Kg, BX48 5µg/Kg
rat model of pMACO [2] = experiment: Rotarod test in rat model of pMACO; type: in vivo, SD rats; settings: IRL1620 5 µg/Kg, BX34 7 µg/Kg, BX48 5 µg/Kg, administered 3 times (2, 4, 6 hours after modeling), n=10
Excerpt: (§1) Male SD rats weighing 280-300 g were used and acclimated for at least 3 days. Focal cerebral ischemia was induced by middle cerebral artery occlusion with a suture method under isoflurane anesthesia. The animals were placed in a secure supine position, and a midline incision was made to expose the right common carotid artery, external carotid artery, and internal carotid artery. A 4.0 monofilament nylon suture was advanced from the external carotid artery toward the internal carotid artery lumen until resistance was felt ( ~ 20 mm), indicating middle cerebral artery occlusion. The nylon filament was allowed to stay in place to create a permanent model of focal cerebral ischemia. Successfully modeled rats were randomly assigned to four groups: a solvent (normal saline) group (n=10), a 7 µg/Kg BX-34 group (n=10), a 5 µg/Kg BX-48 group (n=10), and a 5 µg/Kg IRL1620 group (n=10). Each group was administered once at 2 hours, 4 hours, and 6 hours, respectively, after modeling, for a total of three administrations. Grip strength was measured before administration and at 24 hours and on D3 and D7 after administration. A rotarod test and a foot fault test were performed before administration and at 24 hours and day 7 after administration. During the rotarod test, time and distance were recorded, and ratios of the measurement at 24 hours and the measurement at D7 to the pretest measurement were used as analysis indicators. The specific method for the foot fault test was as follows. The rats were placed on an elevated grid floor (29×29 cm, grid opening: 3 cm^2) for 2 minutes, and the number of foot faults (when a forelimb fell through the grid) and the total steps were recorded. % Foot fault = (the number of forelimb faults/the total number of forelimb steps) × 100.

rat model of pMACO [3] = experiment: Foot fault test in rat model of pMACO; type: in vivo, SD rats
Excerpt: as §1

rat model of pMACO [4] = experiment: Foot fault test in rat model of pMACO; type: in vivo, SD rats; settings: rat pMCAO; D7 after administration; comparison in words
[5] = Determination of half-lives of polypeptides (plasma, LC-MS)
human ETB receptor = biological target: T2, human ETB receptor (Homo sapiens, UniProt P24530); experiment: Determination of EC50 of polypeptides against human ETB receptor (IP-One Gq kit); type: cell-based; settings: 293T-17 cells transfected with PCDNA3.1-hETB; read-out: hETBR agonist activity EC50/nM
T2 construct: expressed in transfected cells; host or cells: 293T-17 cells, transient transfection
T2 sequence (P24530 27-442): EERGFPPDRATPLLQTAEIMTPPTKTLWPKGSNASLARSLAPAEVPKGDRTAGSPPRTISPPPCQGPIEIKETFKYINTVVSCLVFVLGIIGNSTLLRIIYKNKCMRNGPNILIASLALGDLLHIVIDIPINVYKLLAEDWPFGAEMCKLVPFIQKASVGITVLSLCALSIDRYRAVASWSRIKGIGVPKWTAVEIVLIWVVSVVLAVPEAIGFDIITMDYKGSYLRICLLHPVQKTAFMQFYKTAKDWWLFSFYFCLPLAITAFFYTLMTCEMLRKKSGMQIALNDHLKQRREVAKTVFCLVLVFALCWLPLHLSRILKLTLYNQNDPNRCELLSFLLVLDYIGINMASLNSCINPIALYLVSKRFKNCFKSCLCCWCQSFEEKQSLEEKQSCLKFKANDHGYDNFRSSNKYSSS
Description: 293T-17 cells were seeded at a density of 650,000 cells per well in a 6-well plate and cultured overnight in an incubator at 37°C and 5% CO2. Afterward, the cells were transfected with an expression vector, PCDNA3.1-hETB which contained a human ETB receptor gene, at a plasmid concentration of 2.5 µg per well. The cells were further cultured for 48 hours, and green fluorescence expression was observed under a fluorescence microscope. The cells were then digested with trypsin and counted. The activity of compounds on the human ETB receptor was determined with the IP-One Gq kit from Cisbio Bioassays. The cells were suspended in Stim Buffer provided in the kit and the cell suspension was added to a 96-well detection plate at 7 µL cell suspension (containing 30,000 cells) per well. The polypeptides to be tested (prepared according to the Preparation Example of the invention) were diluted in Stim B to obtain a gradient of 11 concentration points. For each concentration point, the polypeptides to be tested were dissolved in Stim B to be at a concentration of 2×, and added at 7 µL to the test cells, while 7 µL of PBS solution was added to the cells in the negative control wells. The plate was sealed and incubated at 37°C for 1 hour in a cell culture incubator. Detection wells, positive control wells containing human endothelin ET1 (ET1: […] (C1-C15,C3-C11)), and PBS control wells were each added with 3 µL of IP1 d2 working solution and 3 µL of IP1 Tb cryptotate Antibody working solution. The plate was then sealed and incubated in the dark at room temperature (25°C±5°C) for 1 hour. The plate seal was removed, and the […] at 665 nm and 620 nm was measured with an ID5 microplate reader. The ratio of the acceptor emission signal to the donor emission signal, i.e., (signal at 665 nm/signal at 620 nm)×10^4, was calculated for each well. With F representing the average value of values of signal at 665 nm/signal at 620 nm for the test samples at various concentrations, a scatterplot was plotted, where the abscissa represented the F value, and the ordinate represented the logarithmic value of the peptide concentration. A curve was fitted with an appropriate method to calculate EC50 values of the polypeptides against the human ETB receptor. Another method was provided for fitting a curve where activation rate of the test polypeptides at each concentration relative to the positive control sample human endothelin ET1 was calculated first with the method in Example 1, and a scatterplot was plotted, where the abscissa represented the activation rate, and the ordinate represented the logarithmic value of the polypeptide concentration. A curve was fitted with an appropriate method to calculate the EC50 values of the polypeptides against the human ETB receptor.

Row | Compound | activation at 10 µM (human ETA receptor; @10µM) [%] | activation at 100 µM (human ETA receptor; @100µM) [%] | Grip Strength Test 3D/pre (rat model of pMACO [1]) | Grip Strength Test 7D/pre (rat model of pMACO [1]) | Grip Strength Test 24h/pre (rat model of pMACO [1]) | Rotarod Test 7D/pretest (%) Distance, m (rat model of pMACO [2]; 7D relative to pretest) | Rotarod Test 7D/pretest (%) Time, s (rat model of pMACO [2]; 7D relative to pretest) | Rotarod Test 7D/pretest (%) Velocity (rat model of pMACO [2]; 7D relative to pretest) | Rotarod Test 24h/pretest (%) Distance, m (rat model of pMACO [2]; 24h relative to pretest) | Rotarod Test 24h/pretest (%) Time, s (rat model of pMACO [2]; 24h relative to pretest) | Rotarod Test 24h/pretest (%) Velocity (rat model of pMACO [2]; 24h relative to pretest) | percentages of foot faults compared with the saline group and the IRL1620 group (rat model of pMACO [3]; pMACO rats, BX-34 7 µg/Kg, BX-48 5 µg/Kg, three administrations) | Foot fault Analysis Mean of 7D (rat model of pMACO [3]; percentage of foot faults at 7D, IRL1620 5 µg/Kg, BX34 7 µg/Kg, BX48 5 µg/Kg, administered 3 times (2, 4, 6 hours after modeling)) | Foot fault Analysis Mean of 24h (rat model of pMACO [3]; percentage of foot faults at 24h, IRL1620 5 µg/Kg, BX34 7 µg/Kg, BX48 5 µg/Kg, administered 3 times (2, 4, 6 hours after modeling)) | Foot fault Analysis Mean of Pretest (rat model of pMACO [3]; percentage of foot faults, pretest (baseline before administration), groups IRL1620 5 µg/Kg, BX34 7 µg/Kg, BX48 5 µg/Kg, 3 times) | percentages of foot faults (rat model of pMACO [4]) | half-life ([5]; C57 BL/6, mouse, plasma, iv) [min] | AUClast 0-30 min ([5]; C57 BL/6 mice, i.v., dosage per compound 0.48, 0.96 or 1 mpk) [ng·h/mL] | EC50 (human ETB receptor) [nM]
1 | CC[C@H](C)[C@H](NC(=O)[C@H](CC(=O)O)NC(=O)[C@H](CC(C)C)NC(=O)[C@H](Cc1c[nH]cn1)NC(=O)[C@H](C)NC(=O)[C@H](Cc1ccccc1)NC(=O)[C@H](Cc1ccc(O)cc1)NC(=O)[C@@H]1CCCCNC(=O)CC[C@H](NC(=O)[C@H](CC(=O)O)NC(=O)CCC(=O)O)C(=O)N[C@@H](CCC(=O)O)C(=O)N[C@@H](C)C(=O)N1)C(=O)N[C@H](C(=O)N[C@@H](Cc1c[nH]c2ccccc12)C(=O)O)[C@@H](C)CC [BX-48] (Suc-DEEAKYFAHLDIIW-OH; lactam 2-5) | 4.45 | 9.37 | 60% ±7% | 66% ±22% | 47% ±23% | 64.97%±19.43% | 81.64%±10.87% | 76.52%±13.55% | 16.15%±22.62% | 23.79%±27.04% | 47.16%±30.9A % | lower | 2.24%±3.1% | 10.89%±10.53% | 1.11%±0.95% | lower than that of the saline group and the IRL1620 group | 3.9 | 757 | –
2 | CCCCCCCCCCCC(=O)N[C@@H](CCC(=O)NCCOCCOCC(=O)NCCCC[C@H](NC(=O)[C@H](Cc1c[nH]cn1)NC(=O)[C@H](C)NC(=O)[C@H](Cc1ccccc1)NC(=O)[C@H](Cc1ccc(O)cc1)NC(=O)[C@@H](NC(=O)[C@H](C)NC(=O)[C@H](CCC(=O)O)NC(=O)[C@H](CCC(=O)O)NC(=O)[C@H](CC(=O)O)NC(=O)/C=C/C(=O)O)C(C)C)C(=O)N[C@@H](CC(=O)O)C(=O)N[C@H](C(=O)N[C@H](C(=O)N[C@@H](Cc1c[nH]c2ccccc12)C(=O)O)[C@@H](C)CC)[C@@H](C)CC)C(=O)O [BX-225-Na] (Fumaroyl-DEEAVYFAHK([AEEA-γGlu-Lauroyl])DIIW-OH) | – | – | – | – | – | – | – | – | – | – | – | – | – | – | – | – | – | – | 134
3 | CC[C@H](C)[C@H](NC(=O)[C@H](CC(=O)O)NC(=O)[C@@H]1CCCCNC(=O)CC[C@H](NC(=O)[C@H](CCC(=O)O)NC(=O)[C@H](CCC(=O)O)NC(=O)[C@H](CC(=O)O)NC(=O)/C=C/C(=O)O)C(=O)N[C@@H](C(C)C)C(=O)N[C@@H](Cc2ccc(O)cc2)C(=O)N[C@@H](Cc2ccccc2)C(=O)N[C@@H](CCCCN)C(=O)N[C@@H](Cc2c[nH]cn2)C(=O)N1)C(=O)N[C@H](C(=O)N[C@@H](Cc1c[nH]c2ccccc12)C(=O)O)[C@@H](C)CC [QP-3] (Fumaroyl-DEEEVYFKHKDIIW-OH; lactam 4-10) | – | – | – | – | – | – | – | – | – | – | – | – | – | – | – | – | – | – | 3.85
